Reference: paper PMC11736144, “A sleepy cannabis constituent: cannabinol and its active metabolite influence sleep architecture in rats” (Neuropsychopharmacology, 2024)
Like-named read-outs stand apart in the source and are kept apart here.

How the values were obtained:
male Long-Evans rats = assay: Acute polysomnography (wireless EEG/EMG telemetry) in rats; conditions: for NREM delta power / REM theta power: EEG power spectra; for NREM delta power: overall effect; for NREM delta power / REM theta power / body temperature / locomotor activity counts: acute IP; for NREM delta power / REM theta power / total sleep time / % NREM sleep / % REM sleep / % active wake / % quiet wake / NREM sleep onset latency / REM bout duration / REM bout number / REM sleep onset latency / cumulative total sleep time / mean duration of NREM bouts per hour / number of NREM bouts per hour / total wake time / body temperature / locomotor activity counts: zolpidem 10 mg/kg; for total sleep time: acute IP at ZT13 (dark phase) vs vehicle, n = 8; for body temperature: subcutaneous; for body temperature / locomotor activity counts: telemetry
mice = conditions: cited from earlier work; for NREM: mice
human CB1 receptors = human CB1 receptors (Homo sapiens, UniProt P21554); assay: cell-based; type: cell-based; parameters: expressed in transfected cells; host or cells: mouse AtT20 FlpIn cells
Chain of human CB1 receptors (P21554 whole entry): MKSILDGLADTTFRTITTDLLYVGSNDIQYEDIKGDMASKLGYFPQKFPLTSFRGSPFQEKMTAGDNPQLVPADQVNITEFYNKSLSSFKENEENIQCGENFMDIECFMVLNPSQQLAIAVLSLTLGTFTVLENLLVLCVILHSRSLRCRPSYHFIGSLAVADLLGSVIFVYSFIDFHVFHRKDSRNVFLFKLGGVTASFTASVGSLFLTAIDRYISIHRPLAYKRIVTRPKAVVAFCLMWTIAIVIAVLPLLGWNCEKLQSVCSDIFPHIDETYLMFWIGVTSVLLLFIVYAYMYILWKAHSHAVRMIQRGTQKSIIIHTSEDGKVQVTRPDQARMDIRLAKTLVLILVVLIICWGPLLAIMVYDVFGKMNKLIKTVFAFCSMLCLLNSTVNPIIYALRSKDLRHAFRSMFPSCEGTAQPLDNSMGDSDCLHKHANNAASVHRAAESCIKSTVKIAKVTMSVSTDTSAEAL

human CB2 receptors = biological target: T1, human CB2 receptors (Homo sapiens, UniProt P34972); assay: Membrane potential (GIRK) assay in AtT20 cells, human CB2; type: cell-based; conditions: at 30 µM; normalized to 1 µM CP 55,940
T1 construct: expressed in transfected cells; host or cells: mouse AtT20 FlpIn cells
T1 sequence (P34972 whole entry): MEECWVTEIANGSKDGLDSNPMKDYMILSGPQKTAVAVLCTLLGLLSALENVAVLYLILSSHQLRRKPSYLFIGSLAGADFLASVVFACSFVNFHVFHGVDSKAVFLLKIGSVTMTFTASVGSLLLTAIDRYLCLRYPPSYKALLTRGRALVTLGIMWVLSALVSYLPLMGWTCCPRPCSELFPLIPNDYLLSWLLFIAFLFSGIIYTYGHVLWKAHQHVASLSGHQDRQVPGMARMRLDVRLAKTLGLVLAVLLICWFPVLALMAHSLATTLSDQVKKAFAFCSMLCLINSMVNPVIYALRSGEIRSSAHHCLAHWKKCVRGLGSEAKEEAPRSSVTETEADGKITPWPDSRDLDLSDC

[1] = Pharmacokinetic analysis of CBN and metabolites in rat plasma and brain (LC-MS/MS); type: in vivo; conditions: for Kp: brain and plasma, 10 mg/kg, read-out: Brain/plasma ratio
Description: Rats received 10 mg/kg CBN IP at approximately ZT13. Rats were then anesthetized with isoflurane at selected ZT points (13, 13.5, 14, 15, 17, 19, and 21) and blood was collected by terminal cardiac puncture. Brains were harvested, snap frozen on dry ice and plasma was isolated via centrifugation at 9000 × g for 10 min at 4 °C. All tissues were stored at −80 °C until analysis. CBN and metabolite concentrations in plasma and brain samples were assayed by liquid chromatography-tandem mass spectrometry (LC–MS/MS) using a using a Shimadzu Nexera LC-30AD UHPLC system coupled to a Shimadzu SPD-20AV photodiode array detector and a Shimadzu LC–MS-8040 triple-quadrupole mass spectrometer, equipped with an electrospray ionization (ESI) source (Shimadzu Corp.; Kyoto, Japan) as described previously.
LC-MS/MS. Plasma samples (50 µL) were spiked with internal standard (12.5 µg/mL d3-THC, 5 µL) and protein precipitation was achieved by vortex-mixing with a 3x volume of ice-cold acetonitrile. The organic layer was isolated by centrifugation (6000 g for 10 min, 4 °C) and evaporated to dryness using N2 gas. Samples were reconstituted in acetonitrile (90 µL) and 0.1% ammonium formate in water (300 µL) for supported-liquid extraction (SLE) using dichloromethane and methyl tert-butyl ether Biotage Isolute SLE+ columns (Uppsala, Sweden) as previously described. Brain samples were prepared as described for plasma samples with minor modifications. Briefly, each half brain was homogenised in methanol: water (2:1, 10x, w/v) and spiked with d3-THC as an internal standard. Homogenates were centrifuged (20,000 g for 30 min, 4 °C). Supernatants were then extracted and prepared as described above.
Quantification of CBN, 11-OH-CBN and 11-COOH-CBN in plasma and brain samples was performed by comparing experimental samples to eight-point standard curves prepared with known amounts of cannabinoid. Plasma and brain concentrations at each time point were averaged and pharmacokinetic parameters were calculated by noncompartmental analysis. Elimination rate constants were determined by linear regression of the terminal component of the concentration-time curve using GraphPad Prism 8.2 (La Jolla, USA). The log-linear trapezoidal method was used to calculate the area under concentration-time curve using equations described previously.

rat CB1 receptors = system: rat CB1 receptors; parameters: method as in PMID 9379442; conditions: adenylyl cyclase inhibition; higher potency than CBN; efficacy not reported; cited from earlier work
rabbits = system: rabbits; parameters: method as in PMID 4355439; conditions: cited from earlier work
[2] = parameters: method as in PMID 4337346; conditions: early human study; cited from earlier work
rats = system: rats; parameters: method as in PMID 28934522, PMID 37507813; conditions: cited from earlier work
[3] = CBN 10, 30, 100 mg/kg, 11-OH-CBN 1, 3, 10 mg/kg
[4] = acute IP at ZT13 vs vehicle, CBN 10, 30, 100 mg/kg, 11-OH-CBN 1, 3, 10 mg/kg
[5] = ip, rat plasma after CBN 10 mg/kg, post-dose, read-out: plasma Tmax (converted)
[6] = rat brain after CBN 10 mg/kg IP, analyte as labelled
[7] = rat brain after CBN 10 mg/kg IP, analyte as labelled, n = 4
[8] = rat plasma after CBN 10 mg/kg IP, analyte as labelled
[9] = rat plasma after CBN 10 mg/kg IP, analyte as labelled, n = 4
[10] = rat, ip, rat, after CBN 10 mg/kg IP, analyte as labelled

## Cc1ccc(-c2nc3ccc(C)cn3c2CC(=O)N(C)C)cc1 [zolpidem, reference compound]
Male Long-Evans rats; CBN 30 mg/kg and 100 mg/kg at ZT17 and 18, zolpidem 10 mg/kg at ZT13 and 14
  NREM delta power at specific time points: increase
Male Long-Evans rats; [3]
  NREM delta power: Neither CBN nor zolpidem had robust effects
  REM theta power: increased
  total sleep time: increased
  body temperature: did not robustly effect
  locomotor activity counts: decreased
Male Long-Evans rats; [4]
  % NREM sleep: increased
  % REM sleep: did not affect
  % active wake: decreased
  % quiet wake: did not affect
  NREM sleep onset latency: decreased
  REM bout duration: did not affect
  REM bout number: did not affect
  REM sleep onset latency: did not affect
  cumulative total sleep time: increased
  mean duration of NREM bouts per hour: increased
  number of NREM bouts per hour: unaffected
  total wake time: decreased

## CCCCCCC(C)(C)c1ccc([C@H]2CCC[C@@H](O)C2)c(O)c1 [CP 47,497]
mice
  NREM: increased

## CCCCCc1cc(O)c2c(c1)OC(C)(C)c1ccc(C(=O)O)cc1-2 [11-COOH-CBN, 11-carboxy-cannabinol]
Human CB1 receptors; 30 µM (highest concentration tested), normalized to 1 µM CP 55,940
  response at CB1: 43 ± 7%
Human CB1 receptors; membrane potential assay
  activity at CB1 receptors (in words): minimal activity
Human CB2 receptors
  activity at CB2: 41 ± 2%
[1]; ip, rat brain after CBN 10 mg/kg, read-out: brain T1/2 (converted)
  half-life: 209 min
[1]; [5]
  Tmax: 1 h
[1]; ip, rat plasma after CBN 10 mg/kg, read-out: t1/2 plasma (converted)
  half-life: 271 min
[1]; [6]
  Brain AUC∞: 137 pg hour/mg brain
  Brain t½: 3.48 h
[1]; [7]
  Brain Cmax: 28 ± 5 pg/mg brain
[1]; rat brain after CBN 10 mg/kg IP, analyte as labelled, read-out: Brain tmax
  Tmax: 2 h
[1]; [8]
  Plasma AUC∞: 1181 ng·h/mL
  Plasma t½: 4.52 h
[1]; [9]
  Cmax: 169 ± 38 ng/mL
[1]; [10]
  Kp: 0.12

## O=S(=O)(F)CCCCCc1ccc(O)cc1 [AM3506]
mice
  REM: suppressed
  NREM: increased

## O=C(Oc1ccc([N+](=O)[O-])cc1)N1CCC(C(O)(c2ccc3c(c2)OCO3)c2ccc3c(c2)OCO3)CC1 [JZL184]
mice
  REM: suppressed
  NREM: increased

## CCCCCc1cc(O)c2c(c1)OC(C)(C)c1ccc(CO)cc1-2 [11-OH-CBN, 11-hydroxy-cannabinol]
Human CB1 receptors; CB1, membrane potential assay, AtT20 cells, read-out: pEC50 (converted)
  EC50: 1000 nM
Human CB1 receptors; CB1, normalized to 1 µM CP 55,940, AtT20 cells, read-out: maximal response (Emax)
  Emax: 75 ± 3%
Human CB1 receptors; membrane potential assay
  activity at CB1 receptors (in words): modestly potent partial agonist
Human CB2 receptors
  activity at CB2: 50 ± 6%
Male Long-Evans rats; [3]
  NREM delta power: significantly increased
  REM theta power: significantly increased
  total sleep time: did not significantly increase
  body temperature: decreased
  locomotor activity counts: biphasic effect
Male Long-Evans rats; acute IP at ZT13
  delayed onset of action on % NREM sleep, time post-dosing: 3 to 4 h
Male Long-Evans rats; [4]
  cumulative NREM time: biphasic effect
  cumulative REM time: suppressed I cumulative REM at the highest dose
  % NREM sleep: increased
  % REM sleep: biphasically affected
  % active wake: decreased
  % quiet wake: decreased
  NREM sleep onset latency: increased
  REM bout duration: did not affect
  REM bout number: affected
  REM sleep onset latency: increased
  cumulative total sleep time: biphasically influenced
  mean duration of NREM bouts per hour: significantly decreased
  number of NREM bouts per hour: increased
  total wake time: did not significantly reduce
[1]; ip, rat brain after CBN 10 mg/kg, read-out: brain Tmax
  Tmax: 2 h
[1]; [5]
  Tmax: 1 h
[1]; ip, rat, after CBN 10 mg/kg, similar in plasma and brain, read-out: half-life in plasma and brain (converted)
  half-life: ~120 min
[1]; [6]
  Brain AUC∞: 1539 pg hour/mg brain
[1]; [7]
  Brain Cmax: 419 ± 37 pg/mg brain
[1]; rat brain after CBN 10 mg/kg IP, analyte as labelled, read-out: Brain t½ (converted)
  half-life: 125 min
[1]; rat brain following systemic administration of CBN
  Brain Cmax: 1.3 µM
[1]; [8]
  Plasma AUC∞: 493 ng·h/mL
[1]; [9]
  Cmax: 170 ± 18 ng/mL
[1]; rat plasma after CBN 10 mg/kg IP, analyte as labelled, read-out: Plasma t½ (converted)
  half-life: 131 min
[1]; rat, after CBN 10 mg/kg IP, analyte as labelled
  Brain/plasma ratio: ~3
[1]; [10]
  Kp: 3.12
Rat CB1 receptors
  potency at rat CB1 receptors: low nM range

## CCCCCc1cc(O)c2c(c1)OC(C)(C)[C@@H]1CCC(C)=C[C@@H]21 [Δ^9-THC, Δ^9-tetrahydrocannabinol]
rabbits
  NREM and REM sleep: early-phase NREM and REM suppression, followed by a later phase increase in NREM sleep
[2]
  NREM and REM sleep: tended to increase NREM but suppress REM sleep
rats
  REM: suppressed
